Reference: EP0314302A2, “Herbicidal o-carbomethoxy-sulfonylureas” (E.I. DU PONT DE NEMOURS AND COMPANY, priority 1987, dated 1989)

Experiments:
Alfalfa = experiment: Test 7 postemergence; type: in vivo; details: scale 0-100
Procedure: (§1) Individual 11.4-cm plastic pots filled with planting medium were seeded with rape, wild radish (Raphanus raphanistruna). tansy mustard (Descurainia pinnata), ball mustard (Neslia paniculata), black mustard (Brassica nigra), yellow mustard, brown mustard, lentils, safflower, flax, sunflower, peanut, vetch, alfalfa, field bean, pea, violet (Viola spp), Kochia (Kochia spp), Russian thistle (Salsola spp), Matricaria spp, groundsel (Senecio spp), shepherdspurse (Capsella bursa-pastoris), nightshade (Solanum spp), sowthistle (Sonchus spp), sugar beet, wheat, "Bonanza" barley and "Morex" barley, Kentucky bluegrass (Poa pratensis), red clover (Trifolium pratense), dandelion (Taraxacum spp) and buckhorn plantain (Plantago lanceolata).
(§2) Plants were treated postemergence with the compound formulated with a non-phytotoxic carrier. Plants were visually rated 18 days after treatment (DAT). Response ratings were based on the scale of 0 to 100 where 0 = no effect, 20 = minimal injury and 100 = complete control.

Bonanza barley = experiment: Test 7 postemergence; type: in vivo; details: scale 0-100
Procedure: as §1, §2

Brown mustard = experiment: Test 7 postemergence; type: in vivo; details: scale 0-100
Procedure: as §1, §2

Field bean = experiment: Test 7 postemergence; type: in vivo; details: scale 0-100
Procedure: as §1, §2

Flax = experiment: Test 7 postemergence; type: in vivo; details: scale 0-100
Procedure: as §1, §2

Lentils = experiment: Test 7 postemergence; type: in vivo; details: scale 0-100
Procedure: as §1, §2

Morex barley = experiment: Test 7 postemergence; type: in vivo; details: scale 0-100
Procedure: as §1, §2

Onicutal mustard = experiment: Test 7 postemergence; type: in vivo; details: scale 0-100
Procedure: as §1, §2

Peanut = experiment: Test 7 postemergence; type: in vivo; details: scale 0-100
Procedure: as §1, §2

Pea = experiment: Test 7 postemergence; type: in vivo; details: scale 0-100
Procedure: as §1, §2

Rape = experiment: Test 7 postemergence; type: in vivo; details: scale 0-100
Procedure: as §1, §2

Safflower = experiment: Test 7 postemergence; type: in vivo; details: scale 0-100
Procedure: as §1, §2

Sugar beet = experiment: Test 7 postemergence; type: in vivo; details: scale 0-100
Procedure: as §1, §2

Sunflower = experiment: Test 7 postemergence; type: in vivo; details: scale 0-100
Procedure: as §1, §2

Vetch = experiment: Test 7 postemergence; type: in vivo; details: scale 0-100
Procedure: as §1, §2

Wheat = experiment: Test 7 postemergence; type: in vivo; details: scale 0-100
Procedure: as §1, §2

Yellow mustard = experiment: Test 7 postemergence; type: in vivo; details: scale 0-100
Procedure: as §1, §2

Kentucky bluegrass = experiment: Test 7 postemergence; type: in vivo, Poa pratensis; details: scale 0-100
Procedure: as §1, §2

Sandbur [1] = experiment: Test 9 postemergence; type: in vivo, Cenchrus echinatus; details: scale 0-100
Procedure: (§3) Plastic windowsill pots containing planting medium were seeded with bahiagrass, bindweed (Convolvulus spp), guinea grass (Panicum maximum), large crabgrass (Digitaria sanguinalis) and pigweed (Amaranthus spp). Individual 15-cm plastic pots contained sandbur (Cenchrus echinatus), Mikania cordata, Boston fern (Nephrolepis exalata), quackgrass (Agropyron repens), elephantgrass (Pennisetum purpureum) and sowthistle (Sonchus spp) plants.
(§4) Plants were treated postemergence with Compound I formulated in a non-phytotoxic solvent. Plants were visually rated 22 days after treatment (DAT). Injury and weed control ratings were based on the scale of 0 to 100 where 0 = no effect, 20 = minimal control and 100 = complete control.

Boston fern = experiment: Test 9 postemergence; type: in vivo, Nephrolepis exalata; details: scale 0-100
Procedure: as §3, §4

Sugarcane = experiment: Test 9 postemergence; type: in vivo; details: scale 0-100
Green foxtail = experiment: Test 10 postemergence safety to crops and weed control; type: in vivo, Setaria viridis; details: 16 g/ha, scale 0-100
Procedure: (§5) The object of these tests was to evaluate the compound of this invention for postemergence safety to crops and weed control. Seedling and budded Macedine grapes were grown in 11.4-cm pots. Flax, green foxtail (Setaria viridis), "Morex" barley, wild oats (Avena fatua), "Era" wheat, annual ryegrass (Lolium multiflorum), wild radish (Raphanus raphanistrum), rape, sunflower, chickweed (Stellaria media) and wild buckwheat (Polygonum convolvulus) were seeded in windowsill pots.
(§6) The plants were sprayed postemergence with Compound I in a non-phytotoxic solvent. Plants were visually rated 15 and 27 days after treatment (DAT). Injury and weed control ratings were based on the scale of 0 to 100 where 0 = no effect, 20 minimal control and 100 = complete control.

Wild buckwheat = experiment: as above; type: in vivo, Polygonum convolvulus; details: 16 g/ha, scale 0-100
Procedure: as §5, §6

Purple nutsedge = experiment: Test 11 citrus pots, preemergence to the weeds; type: in vivo, Cyperus rotundus; details: Preemergence 32 g/ha; 0.25% X-77 surfactant; scale 0-100
Procedure: (§7) Budded citrus seedlings were planted in 30-liter plastic pots which were also seeded with sandbur, guineagrass, narrowleaf panicum, common ragweed, yellow nutsedge, purple nutsedge and bindweed. Compound I was applied preemergence and postemergence to the weeds. Treatments were sprayed to simulate the trunk-to-trunk herbicide application method used in some citrus groves. The compound was also applied postemergence to weeds grown in windowsill flats. The flats were filled with planting medium and seeded with morningglory (Ipomoea spp.). purple nutsedge (Cyperus rotundus), pigweed (Amaranthus spp.), bindweed (Convolvulus spp.), narrowleaf panicum (Panicum maximum), common ragweed (Ambrosia artemisiifolia), sandbur (Cenchrus echinatus), itchgrass (Rottboellia exaltata), johnsongrass (Sorghum halepense), guineagrass (Panicum maximum), smooth crabgrass (Digitaria ischaemum), broadleaf signalgrass (Brachiaria platyphylla), bermudagrass (Cynodon dactylon), goosegrass (Eleusine indica), large crabgrass (Digitaria sanguinalis) and yellow nutsedge (Cyperus esculentus).
(§8) The compound was formulated and sprayed with 0.25% X-77 surfactant in water. Plants were visually rated 21 and 29 days after treatment and compared with appropriate controls. Injury ratings were based on the scale of 0 to 100, where 0 indicates no effect, 20 indicates minimum effect and 100 indicates complete control. […]

Sandbur [2] = experiment: Test 11 citrus pots, postemergence to the weeds; type: in vivo, Cenchrus echinatus; details: Postemergence 32 g/ha, 0.25% X-77 surfactant, scale 0-100
Procedure: as §7, §8

## COC(=O)c1cccnc1S(=O)(=O)NC(=O)Nc1nc(OC)cc(OC)n1 [Compound I, 2-[[(4,6-dimethoxypyrimidin-2-yl)aminocarbonyl]aminosulfonyl]-3-pyridinecarboxylic acid, methyl ester]
Alfalfa; 16 g/ha
  Plant Injury Rating 18 DAT: 100
Alfalfa; 32 g/ha
  Plant Injury Rating 18 DAT: 100
Bonanza barley; 16 g/ha
  Plant Injury Rating 18 DAT: 90
Bonanza barley; 32 g/ha
  Plant Injury Rating 18 DAT: 100
Brown mustard; 16 g/ha
  Plant Injury Rating 18 DAT: 100
Brown mustard; 32 g/ha
  Plant Injury Rating 18 DAT: 100
Field bean; 16 g/ha
  Plant Injury Rating 18 DAT: 100
Field bean; 32 g/ha
  Plant Injury Rating 18 DAT: 100
Flax; 16 g/ha
  Plant Injury Rating 18 DAT: 100
Flax; 32 g/ha
  Plant Injury Rating 18 DAT: 100
Lentils; 16 g/ha
  Plant Injury Rating 18 DAT: 100
Lentils; 32 g/ha
  Plant Injury Rating 18 DAT: 100
Morex barley; 16 g/ha
  Plant Injury Rating 18 DAT: 90
Morex barley; 32 g/ha
  Plant Injury Rating 18 DAT: 100
Onicutal mustard; 16 g/ha
  Plant Injury Rating 18 DAT: 100
Onicutal mustard; 32 g/ha
  Plant Injury Rating 18 DAT: 100
Peanut; 16 g/ha
  Plant Injury Rating 18 DAT: 100
Peanut; 32 g/ha
  Plant Injury Rating 18 DAT: 100
Pea; 16 g/ha
  Plant Injury Rating 18 DAT: 100
Pea; 32 g/ha
  Plant Injury Rating 18 DAT: 100
Rape; 16 g/ha
  Plant Injury Rating 18 DAT: 80
Rape; 32 g/ha
  Plant Injury Rating 18 DAT: 100
Safflower; 16 g/ha
  Plant Injury Rating 18 DAT: 100
Safflower; 32 g/ha
  Plant Injury Rating 18 DAT: 100
Sugar beet; 16 g/ha
  Plant Injury Rating 18 DAT: 100
Sugar beet; 32 g/ha
  Plant Injury Rating 18 DAT: 100
Sunflower; 16 g/ha
  Plant Injury Rating 18 DAT: 100
Sunflower; 32 g/ha
  Plant Injury Rating 18 DAT: 100
Vetch; 16 g/ha
  Plant Injury Rating 18 DAT: 100
Vetch; 32 g/ha
  Plant Injury Rating 18 DAT: 100
Wheat; 16 g/ha
  Plant Injury Rating 18 DAT: 100
Wheat; 32 g/ha
  Plant Injury Rating 18 DAT: 100
Yellow mustard; 16 g/ha
  Plant Injury Rating 18 DAT: 100
Yellow mustard; 32 g/ha
  Plant Injury Rating 18 DAT: 100
Kentucky bluegrass; 16 g/ha
  Plant Injury Rating 18 DAT: 100
Kentucky bluegrass; 32 g/ha
  Plant Injury Rating 18 DAT: 100
Sandbur [1]; 8 g/ha
  Plant Injury Rating 22 DAT: 100
Sandbur [1]; 16 g/ha
  Plant Injury Rating 22 DAT: 100
Sandbur [1]; 32 g/ha
  Plant Injury Rating 22 DAT: 100
Boston fern; 8 g/ha
  Plant Injury Rating 22 DAT: 40
Boston fern; 16 g/ha
  Plant Injury Rating 22 DAT: 50
Boston fern; 32 g/ha
  Plant Injury Rating 22 DAT: 80
Sugarcane; 8 g/ha
  Plant Injury Rating 22 DAT: 10
Sugarcane; 16 g/ha
  Plant Injury Rating 22 DAT: 20
Sugarcane; 32 g/ha
  Plant Injury Rating 22 DAT: 30
Green foxtail
  Plant Injury Rating 15 DAT: 100
Wild buckwheat
  Plant Injury Rating 15 DAT: 100
Purple nutsedge
  Injury ratings: 100
Sandbur [2]
  Injury ratings: 100
